The values below come from patent US6403347B1, “HIV integrase inhibitors” (Merck & Co., Inc., priority 1999, dated 2002).

In one assay the target is HIV integrase (Human immunodeficiency virus type 1 group M subtype B, UniProt P12497). Kind of assay: Strand transfer assay for HIV integrase (microtiter assay, ligation of processed donor DNA to nicked host DNA).
The target in a further assay is HIV-1 integrase (Human immunodeficiency virus type 1 group M subtype B, UniProt P12497). Kind of assay: HIV integrase substrate cleavage (trimming of the 3′ end of HIV long terminal repeat terminus).

Read-outs that look alike come from different tables or passages of the source.

Experimental for HIV-1 integrase: HIV Integrase Substrate Cleavage
An assay for trimming of the 3′ and of HIV long terminal repeat terminus by HIV-1 integrase was conducted according to LaFemina, R. L. et al., J. Virol 10, 5624 (1991), herein incorporated by reference for these purposes. To assay inhibition of HIV integrase substrate cleavage, the reaction was conducted with inhibitor having various concentrations in the range of 0.75 to 100 μM.

`Cc1oc2cc3c(-c4c(O)cc(O)c5c(O)c6c(cc45)OC(C)C(C)C6=O)c(O)cc(O)c3c(O)c2c(=O)c1C` (centres unmarked) [Compound D]: the IC50 against HIV integrase worked out at 4 µM; against HIV-1 integrase, 1 µM.
With `COc1cc(O)c2c(OC)c3c(cc2c1-c1c(OC)cc(OC)c2c(OC)c4c(cc12)OC(C)C(C)C4=O)OC(C)C(C)C3=O` (centres unmarked) [Compound F], half-maximal inhibition against HIV-1 integrase (IC50) was put at 40 µM.
For `CC1Oc2cc3c(-c4c(O)cc(O)c5c(O)c6c(cc45)OC(C)C(C)C6=O)c(O)cc(O)c3c(O)c2C(=O)C1C` (single isomer, unassigned) [Compound B], the 50% inhibitory concentration (IC50) at HIV integrase (inhibition of strand transfer by HIV integrase, concentrations 0.75 to 100 μM) was 12 µM; against HIV-1 integrase (inhibition of HIV integrase substrate cleavage, inhibitor concentrations 0.75 to 100 μM), 2 µM.
In the case of `CC1Oc2cc3c(-c4c(O)cc(O)c5c(O)c6c(cc45)OC(C)C(C)C6=O)c(O)cc(O)c3c(O)c2OC(=O)C1C` (centres unmarked) [Compound C], the IC50 was 9 µM at HIV integrase and 3 µM on HIV-1 integrase.
The corresponding values for `CC1Oc2cc3c(-c4c(O)cc(O)c5c(O)c6c(cc45)OC(C)C(C)C6=O)c(O)cc(O)c3c(O)c2C(=O)C1C` (single isomer, unassigned) [Compound A] are 12 µM and 2 µM.
Consider `COc1cc(OC)c2c(OC)c3c(cc2c1-c1c(OC)cc(OC)c2c(OC)c4c(cc12)OC(C)C(C)C4=O)OC(C)C(C)C3=O` (centres unmarked) [Compound G], for which, on HIV-1 integrase, 60 µM corresponded to half-maximal inhibition (IC50).
The same measure, in the same setting: as for `CC(=O)Oc1cc(OC(C)=O)c2c(OC(C)=O)c3c(cc2c1-c1c(OC(C)=O)cc(OC(C)=O)c2c(OC(C)=O)c4c(cc12)OC(C)C(C)C4=O)OC(C)C(C)C3=O` (centres unmarked) [E], the figure is 50 µM.

The term IC50 denotes the concentration needed to halve the response being measured.
